Test results published in publication PMC6061858 (2018).

What was measured:
[1] = tested on: metY 55 nt (metY SAM-V riboswitch) (RNA, riboswitch) AGGCGCAUUUGAACUGUAUUGUACGCCUUGCAUAAAGCAAAAGUACUAAAAAAGG; assay: ITC; details: 100 mM KCl, 10 mM MgCl2, 40 mM HEPES pH 7.2, 298 K
[2] = tested on: bhmT 52 nt (SAM-52) (RNA, riboswitch) GGGCAGUUGAACCAUAUUGUGCGCCCUGCAUUUGCUUAAGCACUAAAAAGGA; assay: ITC; details: 100 mM KCl, 10 mM MgCl2, 40 mM HEPES pH 7.2, 298 K
[3] = tested on: metY A50Pur (RNA, riboswitch, purine at 50 (replaces A50)) AGGCGCAUUUGAACUGUAUUGUACGCCUUGCAUAAAGCAAAAGUACUAAAAAAGG; assay: ITC; details: 100 mM KCl, 10 mM MgCl2; 40 mM HEPES pH 7.2, 298 K
[4] = tested on: bhmT A50Pur (RNA, riboswitch, purine at A50 (metY numbering; position 47 of strand)) GGGCAGUUGAACCAUAUUGUGCGCCCUGCAUUUGCUUAAGCACUAAAAAGGA; assay: ITC; details: 100 mM KCl, 10 mM MgCl2; 40 mM HEPES pH 7.2, 298 K
[5] = tested on: bhmT A50Ino (RNA, riboswitch, inosine at A50 (metY numbering; position 47 of strand)) GGGCAGUUGAACCAUAUUGUGCGCCCUGCAUUUGCUUAAGCACUAAAAAGGA; assay: ITC; details: 100 mM KCl, 10 mM MgCl2; 40 mM HEPES pH 7.2, 298 K
[6] = tested on: metY A50Inosine (RNA, riboswitch, inosine at 50 (replaces A50)) AGGCGCAUUUGAACUGUAUUGUACGCCUUGCAUAAAGCAAAAGUACUAAAAAAGG; assay: ITC; details: 100 mM KCl, 10 mM MgCl2; 40 mM HEPES pH 7.2, 298 K; 200 µM SAM titrated into 15 µM RNA
[7] = tested on: metY U47Isocytidine (RNA, riboswitch, isocytidine at 47 (replaces U47)) AGGCGCAUUUGAACUGUAUUGUACGCCUUGCAUAAAGCAAAAGUACUAAAAAAGG; assay: ITC; details: 100 mM KCl, 10 mM MgCl2; 40 mM HEPES pH 7.2, 298 K; 200 µM SAM titrated into 15 µM RNA
[8] = tested on: bhmT U47Isocytidine (RNA, riboswitch, isocytidine at U47 (metY numbering; position 44 of strand)) GGGCAGUUGAACCAUAUUGUGCGCCCUGCAUUUGCUUAAGCACUAAAAAGGA; assay: ITC; details: 100 mM KCl, 10 mM MgCl2; 40 mM HEPES pH 7.2, 298 K; 200 µM SAM titrated into 15 µM RNA
[9] = tested on: bhmT U9 4-thiouridine (RNA, riboswitch, 4-thiouridine at U9 (metY numbering; position 7 of strand)) GGGCAGUUGAACCAUAUUGUGCGCCCUGCAUUUGCUUAAGCACUAAAAAGGA; assay: ITC; details: 100 mM KCl, 10 mM MgCl2; 40 mM HEPES pH 7.2, 298 K; 200 µM SAM titrated into 15 µM RNA
[10] = tested on: bhmT U20 4-thiouridine (RNA, riboswitch, 4-thiouridine at U20 (metY numbering; position 18 of strand)) GGGCAGUUGAACCAUAUUGUGCGCCCUGCAUUUGCUUAAGCACUAAAAAGGA; assay: ITC; details: 100 mM KCl, 10 mM MgCl2; 40 mM HEPES pH 7.2, 298 K; 200 µM SAM titrated into 15 µM RNA
[11] = tested on: metY 53 nt (RNA, riboswitch) AGGCGCAUUUGAACUGUAUUGUACGCCUUGCAUAAAGCAAAAGUACUAAAAAA; assay: ITC; details: 100 mM KCl, 10 mM MgCl2; 40 mM HEPES pH 7.2, 298 K; 200 µM SAM titrated into 15 µM RNA
[12] = tested on: bhmT 49 nt (SAM-49) (RNA, riboswitch) GGGCAGUUGAACCAUAUUGUGCGCCCUGCAUUUGCUUAAGCACUAAAAA; assay: ITC; details: 100 mM KCl, 10 mM MgCl2; 40 mM HEPES pH 7.2, 298 K; 200 µM SAM titrated into 15 µM RNA
[13] = tested on: metY 53 nt, 5-bromocytosine (crystallized) (RNA, riboswitch, 5-bromocytidine at 4) AGGCGCAUUUGAACUGUAUUGUACGCCUUGCAUAAAGCAAAAGUACUAAAAAA; assay: X-ray crystallography (2.5 Å); details: co-crystal, space group P4_122
[14] = 200-250 µM SAH titrated into 15 µM RNA

| SMILES | Kd [1] [µM] | Kd [2] [µM] | Kd [3] [µM] | Kd [4] [µM] | Kd [5] [µM] | binding [6] | binding [7] | binding [8] | binding [9] | binding [10] | binding [11] | binding [12] | binding [13] | binding [1, 14] | binding [2, 14] |
| --- | --- | --- | --- | --- | --- | --- | --- | --- | --- | --- | --- | --- | --- | --- | --- |
| C[S+](CC[C@H](N)C(=O)O)C[C@H]1O[C@@H](n2cnc3c(N)ncnc32)[C@H](O)[C@@H]1O (stereo partly drawn) | 4.37 ± 0.21 | 0.50 ± 0.08 | 14.7 ± 1.8 | 0.90 ± 0.10 | 16.8 ± 2.6 | weak | no | no | no | weak | no | no | yes | – | – |
| Nc1ncnc2c1ncn2[C@@H]1O[C@H](CSCC[C@H](N)C(=O)O)[C@@H](O)[C@H]1O | – | – | – | – | – | – | – | – | – | – | – | – | – | no | no |
